The source made the active and inactive calls. The rule behind the calls is not given here.
Experiments:
PC-3 [1] = assay: Cell cycle arrest in human PC3 cells assessed as accumulation at G0/G1 phase at 10 uM after 48 hrs by propidium iodide staining-based flow cytometric analysis relative to control; format: functional
DU-145 [2] = assay: Induction of apoptosis in human DU145 cells assessed as necrotic cells at 40 uM after 48 hrs by annexinV/propidium iodide staining-based FITC analysis (reference value: 0.35%); format: functional
DU-145 [3] = assay: Induction of apoptosis in human DU145 cells assessed as accumulation at G0/G1 phase at 10 uM after 48 hrs by propidium iodide staining-based flow cytometric analysis (reference value: 72.11%); format: functional
MCF7 [4] = assay: Cytotoxicity against human MCF7 cells after 24 hrs by MTT assay; format: functional, cell-based; details: MCF7, 24 h
PC-3 [5] = assay: Induction of apoptosis in human PC3 cells assessed as late apoptotic cells at 5 uM after 48 hrs by annexinV/propidium iodide staining-based FITC analysis relative to control; format: functional
K562 [6] = assay: Induction of apoptosis in human K562 cells assessed as necrotic cells at 5 uM after 48 hrs by annexinV/propidium iodide staining-based FITC analysis (reference value: 1.19%); format: functional
PC-3 [7] = assay: Cytotoxicity against human PC3 cells assessed as cell viability at 10 uM after 24 hrs by MTT assay; format: functional; details: PC-3, 24 h, read-out: Activity
PC-3 [8] = assay: Cell cycle arrest in human PC3 cells assessed as accumulation at S phase at 5 uM after 48 hrs by propidium iodide staining-based flow cytometric analysis relative to control; format: functional
PC-3 [9] = assay: Induction of apoptosis in human PC3 cells assessed as necrotic cells at 20 uM after 48 hrs by annexinV/propidium iodide staining-based FITC analysis relative to control; format: functional
PC-3 [10] = assay: Cell cycle arrest in human PC3 cells assessed as accumulation at G0/G1 phase at 20 uM after 48 hrs by propidium iodide staining-based flow cytometric analysis relative to control; format: functional
DU-145 [11] = assay: Induction of apoptosis in human DU145cells assessed as late apoptotic cells at 20 uM after 48 hrs by annexinV/propidium iodide staining-based FITC analysis (reference value: 2.78%); format: functional
PC-3 [12] = assay: Induction of apoptosis in human PC3 cells assessed as early apoptotic cells at 5 uM after 48 hrs by annexinV/propidium iodide staining-based FITC analysis relative to control; format: functional
K562 [13] = assay: Induction of apoptosis in human K562 cells assessed as accumulation at G2/M phase at 5 uM after 48 hrs by propidium iodide staining-based flow cytometric analysis (reference value: 15.72%); format: functional
DU-145 [14] = assay: Induction of apoptosis in human DU145 cells assessed as accumulation at G2/M phase at 20 uM after 48 hrs by propidium iodide staining-based flow cytometric analysis (reference value: 16.14%); format: functional
DU-145 [15] = assay: Induction of apoptosis in human DU145 cells assessed as accumulation at G0/G1 phase at 20 uM after 48 hrs by propidium iodide staining-based flow cytometric analysis (reference value: 72.11%); format: functional
PC-3 [16] = assay: Induction of apoptosis in human PC3 cells assessed as increase in PARP cleavage product after 48 hrs by Western blot analysis; format: functional, cell-based
K562 [17] = assay: Induction of apoptosis in human K562 cells assessed as necrotic cells at 1 uM after 48 hrs by annexinV/propidium iodide staining-based FITC analysis (reference value: 1.19%); format: functional
K562 [18] = assay: Induction of apoptosis in human K562 cells assessed as late apoptotic cells at 10 uM after 48 hrs by annexinV/propidium iodide staining-based FITC analysis (reference value: 2.55%); format: functional
DU-145 [19] = assay: Induction of apoptosis in human DU145 cells assessed as necrotic cells at 10 uM after 48 hrs by annexinV/propidium iodide staining-based FITC analysis (reference value: 0.35%); format: functional
K562 [20] = assay: Induction of apoptosis in human K562 cells assessed as accumulation at S phase at 1 uM after 48 hrs by propidium iodide staining-based flow cytometric analysis (reference value: 45.67%); format: functional
PC-3 [21] = assay: Induction of apoptosis in human PC3 cells assessed as cleavage of caspase 9 at 5 to 20 uM after 48 hrs by Western blot analysis; format: functional, cell-based
PC-3 [22] = assay: Cell cycle arrest in human PC3 cells assessed as accumulation at G2/M phase at 10 uM after 48 hrs by propidium iodide staining-based flow cytometric analysis relative to control; format: functional
MCF7 [23] = assay: Induction of apoptosis in human MCF7 cells assessed as accumulation at G0/G1 phase at 20 uM after 48 hrs by propidium iodide staining-based flow cytometric analysis (reference value: 67.46%); format: functional
MCF7 [24] = assay: Cytotoxicity against human MCF7 cells assessed as cell viability at 10 uM after 24 hrs by MTT assay; format: functional; details: MCF7, 24 h, read-out: Activity
PC-3 [25] = assay: Induction of apoptosis in human PC3 cells assessed as early apoptotic cells after 48 hrs by annexinV/propidium iodide staining-based FITC analysis relative to control; format: functional, cell-based
DU-145 [26] = assay: Induction of apoptosis in human DU145 cells assessed as early apoptotic cells at 10 uM after 48 hrs by annexinV/propidium iodide staining-based FITC analysis (reference value: 2.34%); format: functional
DU-145 [27] = assay: Induction of apoptosis in human DU145 cells assessed as accumulation at S phase at 40 uM after 48 hrs by propidium iodide staining-based flow cytometric analysis (reference value: 11.48%); format: functional
K562 [28] = assay: Induction of apoptosis in human K562 cells assessed as late apoptotic cells at 1 uM after 48 hrs by annexinV/propidium iodide staining-based FITC analysis (reference value: 2.55%); format: functional
MCF7 [29] = assay: Induction of apoptosis in human MCF7 cells assessed as accumulation at G2/M phase at 10 uM after 48 hrs by propidium iodide staining-based flow cytometric analysis (reference value: 9.55%); format: functional
K562 [30] = assay: Induction of apoptosis in human K562 cells assessed as late apoptotic cells at 5 uM after 48 hrs by annexinV/propidium iodide staining-based FITC analysis (reference value: 2.55%); format: functional
PC-3 [31] = assay: Decrease in Bcl-2 protein level in human PC3 cells at 5 uM after 48 hrs by Western blot analysis; format: functional, cell-based
K562 [32] = assay: Cytotoxicity against human K562 cells after 24 hrs by MTT assay; format: functional, cell-based; details: K562, 24 h
DU-145 [33] = assay: Induction of apoptosis in human DU145 cells assessed as late apoptotic cells at 40 uM after 48 hrs by annexinV/propidium iodide staining-based FITC analysis (reference value: 2.78%); format: functional
PC-3 [34] = assay: Induction of apoptosis in human PC3 cells assessed as necrotic cells at 10 uM after 48 hrs by annexinV/propidium iodide staining-based FITC analysis relative to control; format: functional
PC-3 [35] = assay: Induction of apoptosis in human PC3 cells assessed as early apoptotic cells at 10 uM after 48 hrs by annexinV/propidium iodide staining-based FITC analysis relative to control; format: functional
MCF7 [36] = assay: Induction of apoptosis in human MCF7 cells assessed as accumulation at G2/M phase at 20 uM after 48 hrs by propidium iodide staining-based flow cytometric analysis (reference value: 9.55%); format: functional
MCF7 [37] = assay: Induction of apoptosis in human MCF7 cells assessed as accumulation at S phase at 5 uM after 48 hrs by propidium iodide staining-based flow cytometric analysis (reference value: 22.99%); format: functional

Compound: CC[C@H](/C=C/[C@@H](C)[C@H]1CC[C@H]2[C@H]3[C@H]([C@H](O)C[C@]12C)[C@@]1(C)CC[C@H](O)CC1=C[C@H]3O)C(C)C
- Activity (PC-3 [1]): 52.69%
- Activity (DU-145 [2]): 8.01%
- Activity (DU-145 [3]): 65.66%
- IC50 (MCF7 [4]): 9.04 µM
- Activity (PC-3 [5]): 27.43%
- Activity (K562 [6]): 1.59%
- viability at 10 µM (PC-3 [7]): 40%
- Activity (PC-3 [8]): 26.9%
- Activity (PC-3 [9]): 2.79%
- Activity (PC-3 [10]): 55.82%
- Activity (DU-145 [11]): 5.73%
- Activity (PC-3 [12]): 1.05%
- Activity (K562 [13]): 13.71%
- Activity (DU-145 [14]): 20.74%
- Activity (DU-145 [15]): 67.88%
- Activity (PC-3 [16]): Dose-dependent effect
- Activity (K562 [17]): 0.5%
- Activity (K562 [18]): 2.62%
- Activity (DU-145 [19]): 0.28%
- Activity (K562 [20]): 45.77%
- Activity (PC-3 [21]): Active
- Activity (PC-3 [22]): 24.03%
- Activity (MCF7 [23]): 55.93%
- viability at 10 µM (MCF7 [24]): 36%
- Activity (PC-3 [25]): Dose-dependent effect
- Activity (DU-145 [26]): 4.02%
- Activity (DU-145 [27]): 17.68%
- Activity (K562 [28]): 1.79%
- Activity (MCF7 [29]): 10.03%
- Activity (K562 [30]): 1.91%
- inhibition (PC-3 [31]): Active
- IC50 (K562 [32]): 5.21 µM
- Activity (DU-145 [33]): 13.63%
- Activity (PC-3 [34]): 2.09%
- Activity (PC-3 [35]): 1.49%
- Activity (MCF7 [36]): 24.7%
- Activity (MCF7 [37]): 19.09%
